Literature values in patent publication US20240226034A1, “Use of Terpenoids and Salicylates as Anesthetics and Analgesics” (THE REGENTS OF THE UNIVERSITY OF CALIFORNIA, priority 2021, published 2024).

System: rats
Conditions: antagonism of spinal GABAA receptors in rats; cited from earlier work

FC(F)OC(Cl)C(F)(F)F (stereo not shown) [isoflurane]
increase of EC50 for immobilization: up to 40%
